Results as given in patent publication US20220251081A1, “HETEROBICYCLIC INHIBITORS OF MAT2A AND METHODS OF USE FOR TREATING CANCER” (priority 2019, published 2022).

Key:
MAT2A homodimer = target: T1, MAT2A homodimer (Homo sapiens, UniProt P31153); assay: Biochemical assay: inhibition of recombinant MAT2A homodimer (phosphate release, PiColorLock Gold); conditions: MAT2A IC50 score; read-out: Enzyme Inhibition
T1 construct: inferred from Ni sepharose purification and imidazole elution; made in house; host or cells: Sf9 insect cells, recombinant baculovirus (Bac to Bac, pFASTBAC1 vector)
Description: Mat2A protein was expressed by recombinant baculovirus in SF9 infected cells using the Bac to Bac system cloned into the pFASTBAC1 vector (Invitrogen, Carlsbad, Calif.). Recombinant MAT2A was isolated from the cell lysate of 150 g of infected cells using HP Ni sepharose column chromatography. Recombinant MAT2A homodimer was eluted with 250 and 500 mM imidazole, and fractions containing MAT2A were identified by sodium dodecyl sulfate polyacrylamide gel electrophoresis and pooled.
For determination of the inhibitory potency of compounds against the MAT2A homodimer, protein was diluted to 4 μg/mL in assay buffer (50 mM Tris, pH 8.0, 50 mM KCl, 15 mM MgCl2, 0.3 mM EDTA, 0.005% [w/v] bovine serum albumin [BSA]). Test compound was prepared in 100% dimethyl sulfoxide (DMSO) at 50× the desired final concentration. A 1 μL volume of compound dilution was added to 40 μL of enzyme dilution and the mixture was allowed to equilibrate for 60 minutes at 25° C. The enzymatic assay was initiated by the addition of 10 μL of substrate mix (500 μM ATP, pH 7.0, 40 μM L-methionine in 1× assay buffer), and the mixture was incubated for a further 60 minutes at 25° C. The reaction was halted and the liberated phosphate released by the enzyme in stoichiometric amounts by the production of S-adenosyl methionine (SAM) was measured using the PiColorLock Gold kit (Innova Biosciences, UK). Absolute product amounts were determined by comparison to a standard curve of potassium phosphate buffer, pH 8.0.

[1] = test system: SAM in HCT116 human colon carcinoma cell line with deleted MTAP gene; assay: Cellular assay of target engagement (SAM): SAM level by LC-MS/MS after 72 hrs; type: cell-based; conditions: HCT-116, IC50 score, read-out: Cell 72 h SAM Inhibition (MTAP −/−)
Description: Cellular Assay of Target Engagement (SAM)
Measurement of MAT2A activity in cells was made by direct quantitation of the abundance of the product of its enzymatic activity, SAM. Cancer cells were treated with candidate MAT2A inhibitors for a suitable incubation period, and the cells were then lysed using a reagent which quenched any further enzyme activity. Soluble metabolites including SAM were collected and SAM itself was directly measured from the lysate using quantitative LC-MS/MS.
A typical assay was performed using an HCT116 human colon carcinoma cell line which was genetically engineered to delete the MTAP gene (commercially available from Horizon Discovery). This cell line was utilized because it was determined that loss of the MTAP gene predicts sensitivity to MAT2A inhibitors. Cells were plated in 96-well dishes at appropriate cell density. Following 24 hours, cells were then treated with the candidate MAT2A inhibitor. Prior to addition to cells, the compound was first serially diluted in 100% DMSO, typically as a 3-fold serial dilution starting at 500× top dose with 10 dose points including DMSO only control. Compound was then transferred to a working stock plate in cell culture media by adding 5 μL of compound in DMSO to 495 μL of cell culture media. This working stock was then added to cells via a further 5-fold dilution, by adding 25 μL of working stock to 100 μL of cells in culture media. Following compound addition, cells were incubated at 37° C./5% CO2 for 72 hrs.
To quantitate SAM levels following compound treatment, cells were gently washed once in ammonium carbonate buffer (75 mM at pH 7.4), placed on dry ice, and lysed with metabolite extraction buffer (80% cold methanol and 20% water (v/v) with acetic acid at 1M final concentration with 200 ng/mL deuterated d3-SAM as internal control). Following centrifugation at 4° C. at 3,200 rpm for 30 minutes, the supernatant was collected and stored at −80° C. until analysis by Liquid Chromatography with tandem Mass Spectrometry (LC-MS/MS). LC-MS/MS analysis was performed using an API6500 Mass Spectrometer (Sciex, Framingham, Mass., USA) operating in positive ion spray mode and equipped with a Waters UPLC Acquity (Waters, Milford, Mass., USA) BEH Amide column. Multiple Reaction Monitoring data was acquired for SAM and the d3-SAM standard, using a mass transition pair at m/z 399.2→250.1 and 402.2→250.1, respectively. In a typical LC-MS/MS analysis, the initial flow rate was 0.5 ml/min of 25% mobile phase A (acetonitrile and water at 5:95 (v/v) with 1% formic acid and 10 mM ammonium acetate) and 75% mobile phase B (acetonitrile and water at 95:5 (v/v) with 1% formic acid and 10 mM ammonium acetate), 0.2-0.5 minutes with 75%-35% mobile phase B, 25%-65% mobile phase A, at 0.5 min 65% mobile phase A and 35% mobile phase B, 1.0-1.1 minutes with 35%-75% mobile phase B, 65%-25% mobile phase A, at 1.1 min 25% mobile phase A and 75% mobile phase B with a total run time of 1.5 minutes.

HCT116 MTAP-/- = assay: Inhibition of cellular proliferation, 4 days, Cell Titer Glo, HCT116 MTAP-/-; type: cell-based; conditions: Homo sapiens, HCT-116, 96 h, IC50 score, read-out: 4 Day Relative Growth Inhibition (MTAP −/−)
Description: (§1) Assay for Inhibition of Cellular Proliferation
(§2) Test compound impact on cancer cell growth was assessed by treating cancer cells with compound for 4 days and then measuring proliferation using an ATP-based cell proliferation readout (Cell Titer Glo, Promega Corporation).
(§3) In a typical assay an isogenic pair of HCT116 human colon carcinoma cell lines which vary only in MTAP deletion status (HCT116 MTAP +/+ and HCT116 MTAP−/−) were plated in 96-well dishes at appropriate cell density. Following 24 hours, cells were then treated with the candidate MAT2A inhibitor. Prior to addition to cells, the compound was first serially diluted in 100% DMSO, typically as a 3-fold serial dilution starting at 500× top dose with 10 dose points including DMSO only control. Compound was then transferred to a working stock plate in cell culture media by adding 5 μL of compound in DMSO to 495 μL of cell culture media. This working stock was then added to cells via a further 5-fold dilution, by adding 25 μL of working stock to 100 μL of cells in culture media. Following compound addition, cells were incubated at 37° C./5% C02 for 4 days.
(§4) To measure inhibition of cellular proliferation, cells were allowed to equilibrate to room temperature for 30 minutes, and were then treated with 125 μL of Cell Titer Glo reagent. The plate was then covered with aluminum foil and shaken for 15 minutes to ensure complete mixing and full cell lysis. Luminescent signal was then measured using a plate-based luminometer Veritas version 1.9.2 using ATP standard curve to confirm assay reproducibility from run to run. This luminescence measure was converted to a proliferation index by subtracting from each data point the ATP luminescence signal measured from a bank (no cells) well and dividing by the ATP luminescence signal measured in 0.2% DMSO control well adjusted for signal in blank well. Compound activity was then represented as a percentage change in proliferation relative to a within-plate DMSO control against log 10 of compound concentration in molar (M) units.

HCT116 MTAP +/+ = assay: Inhibition of cellular proliferation, 4 days, Cell Titer Glo, HCT116 MTAP+/+; type: cell-based; conditions: Homo sapiens, HCT-116, 96 h, IC50 score, read-out: 4 Day Relative Growth Inhibition (MTAP +/+)
Description: as §1, §2, §3, §4

T1 sequence (P31153 whole entry): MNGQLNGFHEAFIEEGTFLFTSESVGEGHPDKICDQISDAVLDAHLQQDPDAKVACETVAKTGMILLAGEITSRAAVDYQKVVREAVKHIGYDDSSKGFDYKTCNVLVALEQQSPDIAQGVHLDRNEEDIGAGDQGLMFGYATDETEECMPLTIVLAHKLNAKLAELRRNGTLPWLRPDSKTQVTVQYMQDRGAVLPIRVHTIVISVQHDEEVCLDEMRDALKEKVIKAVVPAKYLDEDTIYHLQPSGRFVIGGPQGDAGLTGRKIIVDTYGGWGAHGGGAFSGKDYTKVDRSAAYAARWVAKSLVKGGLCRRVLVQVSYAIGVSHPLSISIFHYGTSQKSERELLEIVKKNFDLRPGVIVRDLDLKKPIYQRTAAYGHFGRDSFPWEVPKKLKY

| IC50 (MAT2A homodimer) [nM] | IC50 [1] [nM] | IC50 (HCT116 MTAP-/-) [nM] | IC50 (HCT116 MTAP +/+) [nM] | Compound |
| --- | --- | --- | --- | --- |
| < 100 | < 100 | < 100 | 100 to 1000 | CNc1ccc(-n2c(=O)c(-c3ccc4nn(C)cc4c3)cc3ccc(OCC(F)F)nc32)cn1 [Example 147] |
| < 100 | < 100 | < 100 | 100 to 1000 | [2H]C([2H])([2H])Oc1ccc(-n2c(=O)c(-c3ccc4nn(C)cc4c3)cc3ccc(OCC)nc32)cc1 [Example 148] |
| < 100 | < 100 | < 100 | ≥ 1000 | CCOc1ccc2cc(-c3ccc4nn(C)cc4c3)c(=O)n(-c3ccc4scnc4c3)c2n1 [Example 150] |
| < 100 | < 100 | < 100 | ≥ 1000 | CCOc1ccc2cc(-c3ccc4nn(C)cc4c3)c(=O)n(-c3ccc(C(F)(F)F)nc3)c2n1 [Example 151, 7-ethoxy-3-(2-methyl-2H-indazol-5-yl)-1-(6-(trifluoromethyl)pyridin-3-yl)-1,8-naphthyridin-2(1H)-one] |
| < 100 | < 100 | < 100 | ≥ 1000 | CCOc1ccc2cc(-c3ccc4nn(C)cc4c3)c(=O)n(-c3ccc(OC(F)(F)F)nc3)c2n1 [Example 152] |
| < 100 | < 100 | < 100 | ≥ 1000 | CCOc1ccc2cc(-c3ccc4nn(C)cc4c3)c(=O)n(-c3ccc(OC(F)F)nc3)c2n1 [Example 155] |
| < 100 | < 100 | < 100 | 100 to 1000 | CCOc1ccc2cc(-c3ccc4nn(C)cc4c3)c(=O)n(-c3ccc(OC)nc3)c2n1 [Example 157] |
| < 100 | < 100 | < 100 | 100 to 1000 | CCOc1ccc2cc(-c3ccc4nn(C)cc4c3)c(=O)n(-c3ccc(C4CC4)nc3)c2n1 [Example 161] |

Continued, compound first:

| Compound | IC50 (MAT2A homodimer) [nM] | IC50 [1] [nM] | IC50 (HCT116 MTAP-/-) [nM] | IC50 (HCT116 MTAP +/+) [nM] |
| --- | --- | --- | --- | --- |
| [2H]C([2H])([2H])Oc1ccc(-n2c(=O)c(-c3ccc4nn(C)cc4c3)cc3ccc(OCC(F)F)nc32)cc1 [Example 149] | < 100 | < 100 | < 100 | 100 to 1000 |
| CCOc1ccc2cc(-c3ccc4nn(C)cc4c3)c(=O)n(-c3ccc(OC(F)(F)F)cc3)c2n1 [Example 153] | < 100 | < 100 | < 100 | ≥ 1000 |
| CCOc1ccc2cc(-c3ccc(OC)cc3)c(=O)n(-c3ccc(OC(F)F)nc3)c2n1 [Example 158] | < 100 | 100 to 1000 | 100 to 1000 | ≥ 1000 |
| CCOc1ccc2cc(-c3ccc(OC)cc3)c(=O)n(-c3ccc(NC)nc3)c2n1 [Example 159] | < 100 | < 100 | 100 to 1000 | ≥ 1000 |
| CCOc1ccc2cc(-c3ccc4ncccc4c3)c(=O)n(-c3ccc(Cl)cc3)c2n1 [Example 160] | < 100 | < 100 | 100 to 1000 | ≥ 1000 |
| CCOc1ccc2cc(-c3ccc(OC)cc3)c(=O)n(-c3ccc(C4CC4)nc3)c2n1 [Example 162] | < 100 | 100 to 1000 | 100 to 1000 | ≥ 1000 |
| CCOc1ccc2cc(-c3ccc(OC)cc3)c(=O)n(-c3ccc(C4CC4)cc3)c2n1 [Example 163] | < 100 | 100 to 1000 | 100 to 1000 | ≥ 1000 |
| CCOc1cc(C)c2cc(-c3ccc4nn(C)cc4c3)c(=O)n(-c3ccc(Cl)cc3)c2n1 [Example 164] | < 100 | < 100 | < 100 | ≥ 1000 |
| CCOc1ccc2cc(-c3ccc4nn(C)cc4c3)c(=O)n(-c3ccc(C4CC4)cc3)c2n1 [Example 165] | < 100 | < 100 | < 100 | ≥ 1000 |
| Cn1cc2cc(-c3cc4ccc(OCC(F)(F)F)nc4n(-c4ccc(C5CC5)nc4)c3=O)ccc2n1 [Example 166] | < 100 | < 100 | < 100 | ≥ 1000 |
| CNc1ccc(-n2c(=O)c(-c3ccc4nn(C)cc4c3)cc3ccc(OCC(F)(F)F)nc32)cn1 [Example 167] | < 100 | < 100 | < 100 | ≥ 1000 |
| Cn1cc2cc(-c3cc4ccc(OCC(F)F)nc4n(-c4ccc(C5CC5)nc4)c3=O)ccc2n1 [Example 168] | < 100 | < 100 | < 100 | ≥ 1000 |
| Cn1cc2cc(-c3cc4ccc(OCC(F)F)nc4n(-c4ccc5scnc5c4)c3=O)ccc2n1 [Example 169] | < 100 | < 100 | 100 to 1000 | ≥ 1000 |
| COc1ccc(-n2c(=O)c(-c3ccc(OC)nc3)cc3cnc(NCC(F)(F)F)nc32)cc1 [Example 171] | < 100 | 100 to 1000 | ≥ 1000 | ≥ 1000 |
| COc1ccc(-n2c(=O)c(-c3ccc4nccn4c3)cc3cnc(NCC(F)(F)F)nc32)cc1 [Example 172] | < 100 | < 100 | 100 to 1000 | ≥ 1000 |
| COc1ccc(-n2c(=O)c(-c3ccc4c(c3)CCO4)cc3cnc(NCC(F)(F)F)nc32)cc1 [Example 173] | < 100 | < 100 | < 100 | ≥ 1000 |
| COc1ccc(-n2c(=O)c(-c3ccc4[nH]cnc4c3)cc3cnc(NCC(F)(F)F)nc32)cc1 [Example 174] | < 100 | < 100 | ≥ 1000 | ≥ 1000 |
